The term inhibition denotes the drop in the measured response relative to a control, in per cent.

For one experiment, the target named is T1, 5α-reductase (Homo sapiens, UniProt P18405).
T1 construct: host or cells: Hs68 human genital skin fibroblasts
T1 sequence (P18405 1-259): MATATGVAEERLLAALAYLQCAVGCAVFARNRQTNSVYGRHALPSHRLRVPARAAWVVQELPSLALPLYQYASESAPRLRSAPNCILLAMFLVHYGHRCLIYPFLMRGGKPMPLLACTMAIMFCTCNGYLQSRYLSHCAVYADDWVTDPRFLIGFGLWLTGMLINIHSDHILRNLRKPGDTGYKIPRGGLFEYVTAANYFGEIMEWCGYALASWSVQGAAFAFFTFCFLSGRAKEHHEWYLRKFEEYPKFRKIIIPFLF
The experiment is described as follows: 5α-Reductase activity in Hs68 human genital skin fibroblasts (conversion of labeled testosterone, TLC analysis). In kind it is cell-based. Conditions: Hs68, test compound 0.316 µM; Hs68 cells; substrate testosterone 12 µM; incubated four hours; read-out: % Inhibition. The protocol: Cell Culture: 5α-Reductase activity was measured using Hs68 human genital skin fibroblasts which were originally purchased from the American Type Culture Collection (Rockville, MD). The cells were grown in Dulbecco's Modified Eagle's Medium (DMEM) plus 10% stripped fetal bovine serum which was supplemented with amphotericin B ([…]) and gentamicin ([…]) (GIBCO, Grand Island, NY). The serum was stripped of endogenous steroids by incubation with dextran-coated charcoal prior to its addition to the media. The cells were maintained at 37°C in an atmosphere of 95% air, 5% CO2 and were passaged every 7-10 days by exposure to a trypsin-EDTA solution (0.025% trypsin, 0.265 mM EDTA). Prior to the assay the Hs68 cells were harvested and plated in Falcon 6-well plates (Becton Dickinson Labware, Lincoln Park, NJ) at a density of 6 x 10^4 cells per well. The cells were allowed to grow for 4-5 days or until they reached approximately 80% confluence.
Assay Method I: The substrate was prepared by dissolving unlabeled testosterone (Sigma Chemical Co., St. Louis, MO) in absolute ethanol followed by the addition of [7-^3H (N)]-testosterone (23.3 Ci/mmole, New England Nuclear, Boston, MA). The steroid solution was taken to dryness under a stream of nitrogen and then reconstituted in media.
Assay Method II: The substrate used for this method was [^14C]-testosterone (50 mCi/mmol) (New England Nuclear, Boston, MA). An aliquot of the substrate was taken to dryness under a stream of nitrogen. After the addition of 30 µl of ethanol, the testosterone was dissolved in an appropriate volume of media.
Sample Preparation: The test compounds were brought up in absolute ethanol in order to achieve the desired concentration. Subsequent dilutions of the test compounds with media were performed by the Biomek 1000 Automated Laboratory Workstation (Beckman Instruments, Palo Alto, CA). The existing media in the sample wells was aspirated and replaced with fresh media. Test compound was then added to the wells followed by the addition of 0.5 ml of substrate. The volume of the incubation mixture was maintained at 2.0 ml. The final substrate concentration was 12 µM. The concentration of the test compounds ranged from 0.001-150 µM. An additional three wells (background) containing media and substrate but no cells were also included to account for the non-enzymatic metabolism of the substrate. The plates were returned to the incubator and incubated for four hours.
At the end of the incubation the media was collected and transferred to an extraction tube containing 5 ml of toluene-ethanol (9:1), to which has been added 20-250 µg each of unlabeled carrier steroids (estriol, estradiol, estrone, 5α-androstan-3α,17β-diol, 5α-androstan-3β,17β-diol, 4-androstene-3,17-dione, 5α-androstan-3,17-dione, testosterone, and 5α-dihydrotestosterone) (Steraloids, Inc., Wilton, NH). In the case of Assay Method I the extraction tube also contained 1,000 and 10,000 dpm of [4-^14C]-dihydrotestosterone (50-60 mCi/mmol) and [4-^14C]-testosterone (50 mCi/mmol) (New England Nuclear, Boston, MA), respectively. The [^14C]-steroids were included as recovery standards to quantify procedural losses. A small amount of NaCl was also added to the extraction tubes to prevent foaming. The samples were vortexed for approximately 30 seconds and then centrifuged for 10 minutes at 500 x g. The organic phase was collected and the samples taken to dryness, redissolved in dichloromethane-methanol (9:1) and were analyzed by thin layer chromatography using one of the methods described below.
Chromatography Method I (two-dimensional): The extracted samples were appled to silica gel 60F254, 0.25 mm thick, thin layer chromatography plates (EM Science, Cincinnati, OH). The plates were developed in the first dimension with a solvent system containing dichloromethane-ethyl acetate-methanol-acetic acid (160:38:1.5:0.5, Mallinckrodt Inc., Paris, KY).
For the compound `CC(C)(C)c1ccc2c(c1)CCC1NC(=O)CCC21` (racemic) [Example 30, trans-dl-8-t-butyl-1,2,3,4,4a,5,6,10b-octahydrobenzo[f]quinolin-3-one], the inhibition at 0.316 µM amounted to 38.5%.
Take `CN1C(=O)CCC2c3ccc(C(C)(C)C)cc3CCC21` (racemic) [Example 31, trans-dl-8-t-butyl-4-methyl-1,2,3,4,5,6,10b-octahydrobenzo[f]quinolin-3-one]: the inhibition at 0.316 µM is 82.1%.
Consider `CN1C(=O)CC[C@@H]2c3cc([N+](=O)[O-])ccc3CC[C@H]21` (racemic) [Example 47, trans-dl-9-nitro-4-methyl-1,2,3,4,4a,5,6,10b-octahydrobenzo[f]quinolin-3-one], for which the inhibition at 0.316 µM was found to be 49.7%.
Turning to `CN1C(=O)CC[C@@H]2c3cc(N)ccc3CC[C@H]21` (racemic) [Example 48, trans-dl-9-amino-4-methyl-1,2,3,4,4a,5,6,10b-octahydrobenzo[f]quinolin-3-one], the inhibition at 0.316 µM turned out to be 4.36%.
Turning to `CN1C(=O)CC[C@@H]2c3cc(Cl)ccc3CC[C@H]21` (racemic) [Example 49, trans-dl-9-chloro-4-methyl-1,2,3,4,4a,5,6,10b-octahydrobenzo[f]guinolin-3-one], the inhibition at 0.316 µM worked out at 65.7%.
For `O=C1C=C[C@@H]2c3ccc(Cl)cc3CC[C@H]2N1` (racemic) [Example 50A, trans-dl-8-chloro-3,4,4a,5,6,10b-hexahydrobenzo[f]quinolin-3-one], the inhibition at 0.316 µM amounted to 83.3%.
`O=C1CC=C2c3ccc(Cl)cc3CCC2N1` (racemic) [Example 50B, dl-8-chloro-2,3,4,4a,5,6-hexahydrobenzo[f]quinolin-3-one]: the inhibition at 0.316 µM was 84%.
On to `CN1C(=O)CC=C2c3ccc(Cl)cc3CCC21` (racemic) [Example 53, dl-8-chloro-4-methyl-2,3,4,4a,5,6-hexahydrobenzo[f]quinolin-3-one], for which the inhibition at 0.316 µM is 74.8%.
`C[C@@H]1C[C@@H]2c3ccc(Cl)cc3C=C[C@H]2N(C)C1=O` (racemic) [Example 54, trans-dl-8-chloro-2-a-methyl-4-methyl-1,2,3,4,4a,10b-hexahydrobenzo[f]quinolin-3-one]: the inhibition at 0.316 µM turned out to be 73.8%.
For `CN1C(=O)CC[C@@H]2c3ccc(CCC(=O)NC(C)(C)C)cc3CC[C@H]21` (racemic) [Example 55, trans-dl-8-t-butylaminocarbonylethanediyl-4-methyl-1,2,3,4,4a,5,6,10b-octahydrobenzo[f]quinolin-3-one], the inhibition at 0.316 µM worked out at 17.3%.
As to `CN1C(=O)CC[C@@H]2c3ccc(-c4ccccc4)cc3CC[C@H]21` (racemic) [Example 56, trans-dl-8-phenyl-4-methyl-1,2,3,4,4a,5,6,10b-octahydrobenzo[f]quinolin-3-one], the inhibition at 0.316 µM is 74.8%.
Turning to `C=Cc1ccc2c(c1)CC[C@@H]1[C@@H]2CCC(=O)N1C` (racemic) [Example 57, trans-dl-8-vinyl-4-methyl-1,2,3,4,4a,5,6,10b-octahydrobenzo[f]quinolin-3-one], the inhibition at 0.316 µM was found to be 66.6%.
The same measure, in the same setting: the result for `CCOC(=O)c1ccc2c(c1)CC[C@@H]1[C@@H]2CCC(=O)N1C` (racemic) [Example 58, trans-dl-8-ethoxycarbonyl-4-methyl-1,2,3,4,4a,5,6,10b-octahydrobenzo[f]quinolin-3-one] reads 65.7%; that for `CCN1C(=O)CC[C@@]2(C)c3ccccc3CC[C@H]12` (relative stereo) [Example 42, trans-4-ethyl-10b-methyl-1,2,3,4,4a,5,6,10b-octahydrobenzo[f]quinolin-3-one], 10.9%.
With `CCCCN1C(=O)CC[C@@]2(C)c3ccccc3CC[C@H]12` (relative stereo) [Example 43, trans-4-n-butyl-10b-methyl-1,2,3,4,4a,5,6,10b-octahydrobenzo[f]quinolin-3-one], the inhibition at 0.316 µM came out at 11.9%.
With `CN1C(=O)CC[C@]2(C)c3ccc(Cl)cc3CC[C@@H]12` [Example 59, (R) (+)-trans-4-methyl-8-chloro-10b-methyl-1,2,3,4,4a,5,6,10b-octahydrobenzo[f]quinolin-3-one], the inhibition at 0.316 µM was determined as 71.9%.
Same read-out and setting: the result for `C[C@]12C=CC(=O)N[C@@H]1CCc1cc(Cl)ccc12` [Example 61, (R) (+)-trans-8-chloro-10b-methyl-3,4,4a,5,6,10b-hexahydrobenzo[f]quinolin-3-one] reads 61.5%.

The same experiment, now with this note: Hs68, test compound 1.00 µM; Hs68 cells; substrate testosterone 12 µM; incubated four hours.
With `CN1C(=O)CCC2(C)c3ccc(Cl)cc3CCC12` (racemic) [Example 34, trans-dl-8-chloro-4,10b-di-methyl-1,2,3,4,4a,5,6,10b-octahydrobenzo[f]-quinolin-3-one], the inhibition at 1 µM was determined as 94.2%.

The same experiment, now with this note: Hs68, test compound 1.00 µM; Hs68 cells; substrate testosterone 12 µM; incubated four hours; read-out: % Inhibition.
`CN1C(=O)CCC2(C)c3ccc(F)cc3CCC12` (racemic) [Example 32, trans-dl-8-fluoro-4,10b-dimethyl-1,2,3,4,4a,5,6,10b-octahydrobenzo[f]quinolin-3-one]: the inhibition at 1 µM was 81.6%.
For the compound `C[C@]12CCC(=O)N[C@@H]1CCc1cc(Cl)ccc12` (racemic) [Example 38, trans-dl-8-chloro-10b-methyl-1,2,3,4,4a,5,6,10b-octahydrobenzo[f]quinolin-3-one], the inhibition at 1 µM amounted to 34%.
As for `CN1C(=O)C=C[C@@H]2c3ccc(Br)cc3CC[C@H]21` (racemic) [Example 51, trans-dl-8-bromo-4-methyl-3,4,4a,5,6,10b-hexahydrobenzo[f]quinolin-3-one], the inhibition at 1 µM was 95.1%.
For `CN1C(=O)C=C[C@@H]2c3ccc(Cl)cc3CC[C@H]21` (racemic) [Example 52, trans-dl-8-chloro-4-methyl-3,4,4a,5,6,10b-hexahydrobenzo[f]quinolin-3-one], the inhibition at 1 µM turned out to be 71.8%.

The same experiment, now with this note: Hs68, test compound 3.16 µM; Hs68 cells; substrate testosterone 12 µM; incubated four hours.
Take `CN1C(=O)CC[C@@]2(C)c3ccccc3CC[C@H]12` (stereo in doubt) [Example 45, trans-4-methyl-10b-methyl-1,2,3,4,4a,5,6,10b-octahydrobenzo[f]quinolin-3-one]: 3.16 µM produced 72.2% inhibition.

The experiment is the same for the next values; noted with them: Hs68, test compound 150.00 µM; Hs68 cells; substrate testosterone 12 µM; incubated four hours.
On to `C[C@]12CCC(=O)N[C@@H]1CCc1ccccc12` (racemic) [Example 36, trans-dl-10b-methyl-1,2,3,4,4a,5,6,10b-octahydrobenzo[f]quinolin-3-one], for which the inhibition at 150 µM was 43.9%.

Still in this experiment, the particulars now being: test compound 0.316 µM; Hs68 cells; substrate testosterone 12 µM; incubated four hours; read-out: % Inhibition.
`COc1ccc(CN2C(=O)CC[C@]3(C)c4ccc(Cl)cc4CC[C@@H]23)cc1` [Example 44]: the inhibition at 0.316 µM is 5.7%.

Staying with this experiment, now noted: test compound 1.00 µM; Hs68 cells; substrate testosterone 12 µM; incubated four hours; read-out: % Inhibition.
Consider `CN1C(=O)CC[C@]2(C)c3ccccc3CC[C@@H]12` (stereo in doubt) [Example 37, trans-dl-4,10b-dimethyl-1,2,3,4,4a,5,6,10b-octahydrobenzo[f]quinolin-3-one], for which the inhibition at 1 µM was determined as 40%.

Still in this experiment, the particulars now being: test compound 15.00 µM; Hs68 cells; substrate testosterone 12 µM; incubated four hours.
Compound `O=C1CC[C@@H]2c3cc([N+](=O)[O-])ccc3CC[C@H]2N1` (racemic) [Example 46, trans-dl-9-nitro-1,2,3,4,4a,5,6,10b-octahydrobenzo[f]quinolin-3-one] yielded an inhibition at 15 µM of 69.9%.

(Values after patent EP0591583B1, “Benzo (f) quinolinones as 5-alpha-reductase inhibitors” (ELI LILLY AND COMPANY, priority 1992, dated 1994).)
